Patent publication US20170204076A1, “SYNTHESIS AND USE OF AMINO LIPIDS” (INCELLA GMBH, priority 2014, published 2017)

What was measured:
HEK 293 cells = assay: Primary screen of lipid reagents: plasmid DNA transfection, YFP fluorescence relative to total cell number (Hoechst); assay type: cell-based; conditions: for cell toxicity: Hoechst stained apoptotic nuclei, microscope images; for transfection efficiency: HEK 293 cells, plasmid DNA (YFP), 20 to 24 hours after transfection
From the text: Cell line: HEK 293 cells Screen format: 96-well Detection (read-out): YFP fluorescence relative to total cell number (total cell number assessed using the nuclear dye, Hoechst—see FIGS. 1 and 2)
A commercially available liposomal transfection reagent was used as a reference (reference reagent) according to manufacturers' instructions, see FIGS. 1 and 2.
All steps performed in 96 tube/plate format using 8- or 12-channel multi-pipettes. Amounts shown are for duplicate (2×) wells of a 96-well plate.
1. 0.8 μl lipid reagents diluted in 20 μl 50 mmol/l NaOAc buffer, pH 5.0. 2. Diluted lipid reagents from (1) were added to 150 ng DNA (25 ng pH2B-YFP+125 ng pCS-LacZ plasmids) in 20 μl NaOAc buffer, pH 5.0 and mixed with pipette action. 3. After 30 min incubation at RT, added 100 μl freshly resuspended cells (5×10^4 cells/well DMEM culture medium supplemented with 10% fetal calf serum) and mixed with pipette. 4. Duplicate 65 μl aliquots of the cells+lipid/DNA complexes were immediately transferred to separate wells of a 96-well culture plate and placed in 37° C. incubator with 5% CO2. 5. 20 to 24 hours after initial transfection of cells, Hoechst 33258 dye was added to cells at a final concentration of 0.2 μg/ml and cells incubated for a further 30 min at 37° C. Cells were then placed on an inverted microscope and 2 independent sets of images of the cells captured from each well as shown in FIGS. 1 and 2.
For each sample, 3 images were captured: bright field image of cells (FIGS. 1 and 2 upper panels), Hoechst dye stained image of total cell nuclei (FIGS. 1 and 2 middle panels) and YFP images showing cells successfully transfected with plasmid DNA and expressing YFP protein (FIGS. 1 and 2 lower panels). Microscope images of transfected HEK 293 cells, showing both the transfection efficiency and toxicity level of two of our lipid molecules (#30 and #60) compared to a commonly used commercial transfection reagent (reference reagent).

[1] = tested on: mouse embryonic fibroblast (MEF) cells; assay: Transfection of LRP6 siRNA in MEF cells, Western Blot of LRP6 protein; assay type: cell-based; conditions: for siRNA mediated gene silencing compared with the commercial reagent A: LRP6 siRNA, MEF cells cultured for 24 hours, Western Blot; for ability to deliver siRNA molecules to cells: see FIGS. 5 and 6
Procedure: In order to screen for this two different types of cells were used to test the ability of our lipid reagents to deliver siRNA targeting Low density lipoprotein receptor related protein 6 (LRP6). This is a 200 kD single-pass transmembrane receptor for Wnt ligands and activates the Wnt/b-catenin signalling pathway. It is expressed at relatively high levels in MEF cells.
Assay: Transfection of siRNA in mouse embryonic fibroblast (MEF) cells
All steps performed in 0.2 ml PCR tubes and 96 well plate format. Amounts shown are for one well of a 96-well plate.
1. 0.25 μl lipid reagents diluted in 8 μl 50 mmol/l NaOAc buffer, pH 5.0. 2. Diluted lipid reagents from (1) added to 1 pmol (0.2 μl of 5 μmol/1) siRNA molecules in 8 μl NaOAc buffer, pH 5.0 and mixed with pipette action. The siRNA molecules used had either a scrambled sequence not specific for any known gene (Con siRNA), or a sequence specifically targeting the endogenous mRNA from the LRP6 gene (LRP6 siRNA). 3. After 30 min incubation at RT, added 50 μl freshly resuspended cells (2×10^4 cells/well DMEM culture medium supplemented with 10% fetal calf serum) in one well of a 96-well plate and placed in 37° C. incubator with 5% CO2. 4. 24 hours after initial transfection, cells, were lysed in 25 μl detergent buffer (50 mmol/l Tris, 1% Triton X-100, 0.15 mol/l NaCl, pH 7.0, containing protease and phosphatase inhibitors), spun to remove insoluble cell debris and […] clarified lysates added to 10 μl of 4× SDS loading buffer (250 mmol/l Tris HCl, 40% Glycerol, 8% SDS, 0.01% Bromophenol Blue, 5% 2-Mercaptoethanol, pH 6.8). 5. Samples were denatures by heating at 96° C. for 2 min and 12 μl loaded on a 9% SDS-PAGE gels for separation of proteins according to molecular weight. Separated proteins were transferred from the SDS-PAGE gel to nitrocellulose membrane for Western Blot (WB) analysis. 6. WB was performed using an automated BioLane HTI instrument using antibodies against LRP6 and α-tubublin proteins. HRP linked secondary antibodies and chemiluminescence were used to detect the proteins on the membrane.
FIGS. 5 and 6 show the Western Blot (WB) analysis of LRP6 protein from total lysates of MEF (mouse embryonic fibroblast) cells transfected with the indicated siRNA molecules and cultured for 24 hours.

SMILES | cell toxicity (HEK 293 cells) | siRNA mediated gene silencing compared with the commercial reagent A [1] | ability to deliver siRNA molecules to cells [1] | transfection efficiency (HEK 293 cells)
CCCCCCCCCCCSCC(COCC(O)CNCCN(CC)CC)SCCCCCCCCCCC (stereo not shown) [Example 64, 3-ethyl-12-(undecylthio)-10-oxa-14-thia-3,6-diazapentacosan-8-ol] | very low toxicity | quite effective | very efficiently deliver siRNA molecules to cells | 
CCCCCCCCCCCSCC(CNC(=O)NCCN(C)C)SCCCCCCCCCCC (stereo not shown) [Example 24, 1-(2,3-bis(undecylthio)propyl)-3-(2-(dimethylamino)ethyl)urea] | very low toxicity | quite effective | very efficiently deliver siRNA molecules to cells | 
CCCCCCCCCCCCSCC(COCC(O)CNCCCN(CC)CC)SCCCCCCCCCCCC (stereo not shown) [Example 60, 13-(dodecylthio)-3-ethyl-11-oxa-15-thia-3,7-diazaheptacosan-9-ol] | low cell toxicity |  |  | approximately 90%
CCCCCCCCCCCSCC(CNC(=O)NCCCN(CC)CC)SCCCCCCCCCCC (stereo not shown) [Example 30, 1-(2,3-bis(undecylthio)propyl)-3-(3-(diethylamino)propyl)urea] | low cell toxicity |  |  | approximately 90%
